Values of other authors in US20120004294A1, “ANTITUMOR COMBINATION COMBINING AVE8062 AND DOCETAXEL” (SANOFI, priority 2008, published 2012).

Settings: AVE8062A alone, at too high a dose (weekly doses 4.5-30 mg/m^2 studied)

COc1ccc(/C=C\c2cc(OC)c(OC)c(OC)c2)cc1NC(=O)[C@@H](N)CO [AVE8062A]
Cardiotoxicity: cardiotoxicity was observed
